Each block holds one compound with its values, some of them ahead of it.
What was measured:
[1] = Small intestinal (duodenal) absorption from aqueous solution in rats, percent bioavailability versus intravenous administration; assay type: in vivo; details: vs intravenous
Protocol: Blood levels were monitored and the amount of polypeptide absorbed calculated against intravenous administration and expressed as percent bioavailability.
Experiments were performed as in Example 5. The solutions contained 10 mg/kg of cefoxitin and 20 mg/kg of absorption promoters. Blood levels of cefoxitin were monitored and the bioavailability of cefoxitin absorbed was calculated against intravenous administration.

in vivo = details: rat
Protocol: Experiments were performed with rats wherein each animal received an aqueous microenema applied to the rectal cavity. The microenemas contained target drug entity (amount shown in table) in the presence or absence of 5 mg lauroylcholine chloride or palmitoylcholine iodide. Blood levels were monitored and the amount of drug absoreed calculated against intravenous administration and expressed as percent bioavailability.
The amount of drug absorbed is expressed as percent bioavailability versus intravenous administration
Blood was collected and sodium cefoxitin measured. Absorption of sodium cefoxitin is expressed as percent bioavailability versus intravenous administration.

- bioavailability ([1]; rat, blood, aqueous solution applied to duodenal region, 0.1 mg polypeptide alone, read-out: Percent Bioavailability (mean ± SD), adjuvant None): 1%
- bioavailability (in vivo; Percent Bioavailability (mean ± SD) with Control): 7 ± 3.5%
Compound: CC(C)[C@@H]1NC(=O)[C@H](CCCCN)NC(=O)[C@@H](Cc2c[nH]c3ccccc23)NC(=O)[C@H](Cc2ccc(O)cc2)NC(=O)[C@H](C)N(C)C(=O)[C@H](Cc2ccccc2)NC1=O [cyclo(N--Me--Ala--Try--DTrp--Lys--Val--Phe)acetate]

- Absorption of the drug by itself (in vivo): absorbed well by itself
- Percent Bioavailability (mean ± SD) with Control (in vivo): 75 ± 3.3%
Compound: Cn1c(=O)c2[nH]cnc2n(C)c1=O [Theophylline]

- Percent Bioavailability (mean ± SD) of cefoxitin, adjuvant None ([1]; duodenal solution, 10 mg/kg cefoxitin alone): 2 ± 1.1%
- Percent Bioavailability (mean ± SD) with Control (in vivo): 2 ± 1.1%
- Sodium Cefoxitin Percent Bioavailability (mean ± SD), compound None (in vivo; pH 6): 2 ± 1.1%
Compound: CO[C@@]1(NC(=O)Cc2cccs2)C(=O)N2C(C(=O)O)=C(COC(N)=O)CS[C@@H]21 [Sodium cefoxitin]

- Percent Bioavailability (mean ± SD) with Control (in vivo): 0.5 ± 0.1%
Compound: Nc1ccn([C@@H]2O[C@H](CO)[C@@H](O)[C@@H]2O)c(=O)n1 [Cytarabine]

Source: US4822773A (Merck & Co., Inc., priority 1987, dated 1989)
